Data taken from BindingDB's records for doi:10.1016/j.ejmech.2019.111919 (University of Auckland, 2020).
pIC50, pKd, pKi: −log10 of the molar value.

What was measured:
[1] = Inhibition of Bacillus cereus PC-phospholipase C using phosphoryl-choline as substrate by molybdenum blue dye based assay
[2] = Inhibition of Bacillus cereus phospholipase C using L-alpha-phosphatidylcholine as substrate by Lineweaver-Burk plot analysis
[3] = biological target: Phosphatidylcholine-specific phospholipase C (Bacillus cereus) (UniProt P09598); experiment: Inhibition of recombinant Bacillus cereus N-terminal His6-tagged full length PC-PLC 3C Protease cleavage site expressed in Escherichia coli BL21(DE3) cells using phosphatidylcholine as substrate by amplex red assay relative to control
Sequence of Phosphatidylcholine-specific phospholipase C (Bacillus cereus) (P09598 whole entry, looked up): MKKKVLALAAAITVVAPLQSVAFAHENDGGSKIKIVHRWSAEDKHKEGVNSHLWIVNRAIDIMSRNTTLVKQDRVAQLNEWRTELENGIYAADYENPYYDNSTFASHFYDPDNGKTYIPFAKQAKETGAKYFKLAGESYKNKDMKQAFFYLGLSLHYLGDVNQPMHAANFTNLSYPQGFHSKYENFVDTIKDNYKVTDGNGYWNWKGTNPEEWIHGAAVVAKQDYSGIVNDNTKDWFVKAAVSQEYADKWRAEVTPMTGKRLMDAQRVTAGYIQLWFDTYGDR

[4] = biological target: Phosphatidylcholine-specific phospholipase C (Bacillus cereus) (UniProt P09598); experiment: Binding affinity to Bacillus cereus N-terminal His6-tagged full length PC-PLC 3C Protease cleavage site expressed in Escherichia coli BL21(DE3) cells using 3,3-dimethylglutaratic acid as substrate by intrinsic fluorescence assay

Structure (SMILES)	pIC50 [3]	further results
O=C1N(O)CCCCN1O	–	pKi [1]: 4.15
CCCCCOC(=O)CC(CSP(=O)([O-])OCC[N+](C)(C)C)C(=O)OCCCCC (stereo not drawn)	–	pKi [2]: 5.15
O=C(O)c1cc(NCc2ccccc2Cl)ccc1N1CCOCC1	5.44	pKd [4]: 3.49
O=C(O)c1cc(NCc2cccc(Cl)c2)ccc1N1CCOCC1	5.31	–
O=C(O)c1cc(NCc2cccc(Br)c2)ccc1N1CCOCC1	5.43	–
O=C(O)C1Cc2c([nH]c3ccccc23)C(c2ccc(O)c(O)c2)N1 (stereo not drawn)	5.51	–
CN(C)c1ccc(C2NC(C(=O)O)Cc3c2[nH]c2ccccc32)cc1 (stereo not drawn)	4.96	–
